In the supplement of paper PMC10307832:

Compound: CN(NC(=O)CC(=O)NN(C)C(=S)c1ccccc1)C(=S)c1ccccc1 [Elesclomol] + CCNC(=O)c1noc(-c2cc(C(C)C)c(O)cc2O)c1-c1ccc(CN2CCOCC2)cc1 [Luminespib] (partner 0.01 µM)
Experiment: relative viability (nuclei count vs DMSO), 5 days (fraction); higher = more cells survive
Procedure, shortened: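 Cells from lung cancer lines were seeded into 1536-well plates and, one day later, dosed by pin tool. Treatments were either a single drug or a fixed dose of an anchor drug with five library-drug doses (not always all listed) in √10 steps. After 5 days, nuclei were stained in a one-step fixation (final 0.05% Triton X-100, 1% formaldehyde, 1 ug/ml Hoechst) and counted on 4× images, and relative viability is the treated-to-vehicle nuclei ratio, as the median of duplicate plates.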

LXF-289 showed a relative viability (first compound 0.003162 µM) of 0.676, a relative viability (first compound 0.01 µM) of 0.661 and a relative viability (first compound 0.03162 µM) of 0.691. For the same cell line, the relative viability (first compound 0.1 µM) was 0.316.

BEN showed a relative viability (first compound 0.003162 µM) of 0.333, a relative viability (first compound 0.01 µM) of 0.232 and a relative viability (first compound 0.03162 µM) of 0.158. It also gave a relative viability (first compound 0.1 µM) of 0.237.

In the case of NCI-H2023, the relative viability (first compound 0.003162 µM) is reported as 0.658, the relative viability (first compound 0.01 µM) is reported as 0.376 and the relative viability (first compound 0.03162 µM) is reported as 0.134. For the same cell line, the relative viability (first compound 0.1 µM) was 0.0435.

Work on NCI-H661 yielded a relative viability (first compound 0.003162 µM) of 0.845, a relative viability (first compound 0.01 µM) of 0.326 and a relative viability (first compound 0.03162 µM) of 0.282. For the same cell line, the relative viability (first compound 0.1 µM) was 0.214.

With NCI-H1355 the relative viability (first compound 0.003162 µM) was 0.713, the relative viability (first compound 0.01 µM) was 0.623 and the relative viability (first compound 0.03162 µM) was 0.413. It also gave a relative viability (first compound 0.1 µM) of 0.171.

NCI-H1793 gave a relative viability (first compound 0.003162 µM) of 0.13, a relative viability (first compound 0.01 µM) of 0.148 and a relative viability (first compound 0.03162 µM) of 0.158. The relative viability (first compound 0.1 µM) was 0.133.

Work on COR-L 105 yielded a relative viability (first compound 0.003162 µM) of 0.721, a relative viability (first compound 0.01 µM) of 0.161 and a relative viability (first compound 0.03162 µM) of 0.307. The relative viability (first compound 0.1 µM) was 0.164.

Cell Line NCI-H2228 has a relative viability (first compound 0.003162 µM) of 0.163, a relative viability (first compound 0.01 µM) of 0.152 and a relative viability (first compound 0.03162 µM) of 0.123. For the same cell line, the relative viability (first compound 0.1 µM) was 0.0703.

NCI-H838 showed a relative viability (first compound 0.003162 µM) of 0.33, a relative viability (first compound 0.01 µM) of 0.235 and a relative viability (first compound 0.03162 µM) of 0.166. It also gave a relative viability (first compound 0.1 µM) of 0.109.

In the case of EMC-BAC-2, the relative viability (first compound 0.003162 µM) is reported as 1.23, the relative viability (first compound 0.01 µM) is reported as 1.04 and the relative viability (first compound 0.03162 µM) is reported as 0.535. It also gave a relative viability (first compound 0.1 µM) of 0.383.

LU99A gave a relative viability (first compound 0.003162 µM) of 0.264, a relative viability (first compound 0.01 µM) of 0.21 and a relative viability (first compound 0.03162 µM) of 0.227. For the same cell line, the relative viability (first compound 0.1 µM) was 0.189.

In the case of PC-3 [JPC-3], the relative viability (first compound 0.003162 µM) is reported as 0.706, the relative viability (first compound 0.01 µM) is reported as 0.612 and the relative viability (first compound 0.03162 µM) is reported as 0.701. It also gave a relative viability (first compound 0.1 µM) of 0.447.

With NCI-H596 the relative viability (first compound 0.003162 µM) was 0.845, the relative viability (first compound 0.01 µM) was 0.924 and the relative viability (first compound 0.03162 µM) was 0.787. The relative viability (first compound 0.1 µM) was 0.186.

LCLC-97TM1 showed a relative viability (first compound 0.003162 µM) of 0.791, a relative viability (first compound 0.01 µM) of 0.877 and a relative viability (first compound 0.03162 µM) of 0.781. The relative viability (first compound 0.1 µM) was 0.247.

NCI-H1993 gave a relative viability (first compound 0.003162 µM) of 0.764, a relative viability (first compound 0.01 µM) of 0.595 and a relative viability (first compound 0.03162 µM) of 0.466. The relative viability (first compound 0.1 µM) was 0.429.

In the case of HARA, the relative viability (first compound 0.003162 µM) is reported as 0.545, the relative viability (first compound 0.01 µM) is reported as 0.669 and the relative viability (first compound 0.03162 µM) is reported as 0.1. For the same cell line, the relative viability (first compound 0.1 µM) was 0.0826.

With NCI-H460 the relative viability (first compound 0.003162 µM) was 0.0311, the relative viability (first compound 0.01 µM) was 0.0324 and the relative viability (first compound 0.03162 µM) was 0.0198. For the same cell line, the relative viability (first compound 0.1 µM) was 0.0215.

NCI-H1650 was tested, and the relative viability (first compound 0.003162 µM) was 0.156, the relative viability (first compound 0.01 µM) was 0.206 and the relative viability (first compound 0.03162 µM) was 0.201. For the same cell line, the relative viability (first compound 0.1 µM) was 0.148.

In the case of EKVX, the relative viability (first compound 0.003162 µM) is reported as 0.831, the relative viability (first compound 0.01 µM) is reported as 0.539 and the relative viability (first compound 0.03162 µM) is reported as 0.169. The relative viability (first compound 0.1 µM) was 0.145.

NCI-H1755 showed a relative viability (first compound 0.003162 µM) of 0.418, a relative viability (first compound 0.01 µM) of 0.257 and a relative viability (first compound 0.03162 µM) of 0.452. The relative viability (first compound 0.1 µM) was 0.284.

NCI-H1395 showed a relative viability (first compound 0.003162 µM) of 0.57, a relative viability (first compound 0.01 µM) of 0.498 and a relative viability (first compound 0.03162 µM) of 0.308. The relative viability (first compound 0.1 µM) was 0.292.

NCI-H1792 showed a relative viability (first compound 0.003162 µM) of 0.385, a relative viability (first compound 0.01 µM) of 0.354 and a relative viability (first compound 0.03162 µM) of 0.431. For the same cell line, the relative viability (first compound 0.1 µM) was 0.329.

NCI-H2087 showed a relative viability (first compound 0.003162 µM) of 0.158, a relative viability (first compound 0.01 µM) of 0.189 and a relative viability (first compound 0.03162 µM) of 0.139. The relative viability (first compound 0.1 µM) was 0.0928.

With H3255 the relative viability (first compound 0.003162 µM) was 0.883, the relative viability (first compound 0.01 µM) was 0.875 and the relative viability (first compound 0.03162 µM) was 0.547. The relative viability (first compound 0.1 µM) was 0.395.

With SK-MES-1 the relative viability (first compound 0.003162 µM) was 0.922, the relative viability (first compound 0.01 µM) was 0.713 and the relative viability (first compound 0.03162 µM) was 0.274. For the same cell line, the relative viability (first compound 0.1 µM) was 0.295.

Work on NCI-H23 yielded a relative viability (first compound 0.003162 µM) of 0.171, a relative viability (first compound 0.01 µM) of 0.17 and a relative viability (first compound 0.03162 µM) of 0.154. It also gave a relative viability (first compound 0.1 µM) of 0.164.

Work on HCC-827 yielded a relative viability (first compound 0.003162 µM) of 0.586, a relative viability (first compound 0.01 µM) of 0.54 and a relative viability (first compound 0.03162 µM) of 0.579. The relative viability (first compound 0.1 µM) was 0.473.

For UMC-11, the relative viability (first compound 0.003162 µM) was 1.04, the relative viability (first compound 0.01 µM) was 1.02 and the relative viability (first compound 0.03162 µM) was 0.604. It also gave a relative viability (first compound 0.1 µM) of 0.413.

In the case of NCI-H1975, the relative viability (first compound 0.003162 µM) is reported as 0.126, the relative viability (first compound 0.01 µM) is reported as 0.133 and the relative viability (first compound 0.03162 µM) is reported as 0.133. The relative viability (first compound 0.1 µM) was 0.115.

Work on NCI-H1563 yielded a relative viability (first compound 0.003162 µM) of 0.518, a relative viability (first compound 0.01 µM) of 0.472 and a relative viability (first compound 0.03162 µM) of 0.471. For the same cell line, the relative viability (first compound 0.1 µM) was 0.432.

COR-L23 was tested, and the relative viability (first compound 0.003162 µM) was 0.598, the relative viability (first compound 0.01 µM) was 0.316 and the relative viability (first compound 0.03162 µM) was 0.206. For the same cell line, the relative viability (first compound 0.1 µM) was 0.0873.

With CAL-12T the relative viability (first compound 0.003162 µM) was 0.328, the relative viability (first compound 0.01 µM) was 0.115 and the relative viability (first compound 0.03162 µM) was 0.0856. For the same cell line, the relative viability (first compound 0.1 µM) was 0.0463.

SW 1573 gave a relative viability (first compound 0.003162 µM) of 0.154, a relative viability (first compound 0.01 µM) of 0.0972 and a relative viability (first compound 0.03162 µM) of 0.0704. For the same cell line, the relative viability (first compound 0.1 µM) was 0.0142.

NCI-H2126 was tested, and the relative viability (first compound 0.003162 µM) was 0.883, the relative viability (first compound 0.01 µM) was 0.801 and the relative viability (first compound 0.03162 µM) was 0.338. For the same cell line, the relative viability (first compound 0.1 µM) was 0.325.
